pIC50: −log10 of the molar value.
Columns and labels:
[1] = system: DU-145 (human prostate cancer cells); test: Measurement of cell proliferation (WST1), DU-145; assay type: cell-based; settings: DU-145, 96 hours treatment, read-out: IC50 inhibitory concentration, proliferation of DU-145 cell lines
Experimental: (§1) DU-145 (human prostate cancer cells), HT29 (cancer of the colon) and Mia-PaCa2 (human pancreatic cancer cells) were acquired from the American Tissue Culture Collection (Rockville, Md., USA).
(§2) Measurement of Cell Proliferation
(§3) The cells placed in 80 μl of Dulbecco's modified Eagle medium (Gibco-BRL, Cergy-Pontoise, France) completed with 10% of foetal calf serum inactivated by heating (Gibco-BRL, Cergy-Pontoise, France), 50000 units/l of penicillin and 50 mg/l streptomycin (Gibco-BRL, Cergy-Pontoise, France), and 2 mM of glutamine (Gibco-BRL, Cergy-Pontoise, France) were seeded on a 96-well plate on day 0. The cells were treated on day 1 for 96 hours with increasing concentrations of each of the compounds to be tested. At the end of the of this period, quantification of the cell proliferation is evaluated by a calorimetric test based on the cleavage of the tetrazolium salt WST1 by mitochondrial dehydrogenases in viable cells leading to the formation of formazan (Boehringer Mannheim, Meylan, France). These tests are carried out in duplicate with 8 determinations per concentration tested. The products are solubilised in dimethylsulphoxide (DMSO) at 10^−2 M and finally used in culture with 0.5% DMSO.

[2] = system: DNA polymerase of E. Coli (Klenow DNA polymerase enzyme); test: Incorporation of deoxycytidine 5'-[alpha32P]-triphosphate into a DNA in the presence of DNA polymerase in an acellular system; assay type: biochemical; settings: concentration 100 μg/ml; labelled dCTP, 10 minutes at 37°, vs control
Experimental: Incorporation of Deoxycytidine 5′-[alpha^32P]-triphosphate into a DNA in the Presence of DNA Polymerase in an Acellular System
Labelling of the DNA is carried out on a DNA fragment which incorporates nucleotides by way of the activity of the DNA polymerase enzyme. From these nucleotides, the dCTP is labelled with radioactive phosphorus (^32P).
Plasmidal DNA (pc DNA 3, invitrogen, Netherlands) is diluted to a concentration of 2 ng in 45 μl of TE solution (10 mM Tris-HCl, pH 8, 1 mM EDTA) and denatured by heating to 100° C. for 10 minutes before being replaced directly in ice. The denatured DNA is placed in the tube which contains the buffer solution of dATP, dGTP, dTTP, the Klenow DNA polymerase enzyme and the random primers (Rediprime II random prime labelling system, RPN 1633, RPN 1634, Amersham pharmacia biotech). 2 μl of Redivue deoxycytidine 5′-[alpha^32P]-triphosphate (250 μCi specific activity Amersham, Orsay, France) is added to start the reaction. The reaction is carried out in the presence or absence of the compound to be tested for 10 minutes at 37°. […] 10 μL is counted in 5 ml of scintillator (Instage1 plus and scintillation counter Packard, Rungis, France). The results are expressed as a percentage of the inhibition of incorporation of the labelled nucleotide in the sample with respect to the control: 100−[(DPM of the sample treated/control DPM)×100].

HT29 tumor cells = test: Incorporation of tritiated thymidine into DNA of HT29 cells in exponential growth phase; assay type: cell-based, human; settings: 3 hours treatment
Experimental: as §1
Incorporation of Thymidine Labelled with Tritium into DNA Cells in Exponential Growth Phase
HT29 cells are seeded in 96-well plates (culturPlate-96, Packard, Rungis, France) (4000 cells per well) with the medium (DME, Gibco BRL, Cergy-Pontoise, France) complemented with 10% of foetal calf serum, Gibco BRL, Cergy-Pontoise, France). On day 3, the medium is removed and replaced with medium containing the tritiated thymidine (5′-thymidine TRK.328, 1 mCi, 0.6 μCi/well, Amersham, Orsay, France) with or without the compound. The treatments are carried out for 3 hours. The medium is then removed and the cells are washed twice with 20 μl of PBS (Gibco BRL, Cergy-Pontoise, France). The lysis solution (SDS 1.25%, EDTA 5 mM) is added for 10 minutes at ambient temperature, then 75 μl of scintillating liquid (microscint 40, Packard, Rungis, France) is added. The plates are read using Topcount (Packard, Rungis, France). These tests are carried out in duplicate and the results are expressed with respect to the incorporation of the labelled nucleotide in the sample treated with the compound over the incorporation of the labelled nucleotide in the control sample (sample DPM/control DPM).

[3] = system: Mia-PaCa2 (human pancreatic cancer cells); test: Measurement of cell proliferation (WST1), Mia-PaCa2; assay type: cell-based; settings: MIA PaCa-2, Mia-Paca2, 96 hours treatment, read-out: IC50 inhibitory concentration, proliferation of Mia-Paca2 cell lines
Experimental: as §1, §2, §3

Compound: CC1C(=O)OC2CC3(C)OC3C(O[Si](C)(C)C(C)(C)C)C(N(C)C)C3=CC(OC3=O)C21 (stereo not shown) [Example 16, 11-(tert-butyldimethylsiloxy)-12-dimethylamino-3,8-dimethyl-5,9,15-trioxatetracyclo[11.2.1.0^2,6.0^8,10]hexadec-13(16)-ene-4,14-dione]
- pIC50 [1]: ≥ 4.52
- % inhibition of incorporation [2]: 70 ± 8%
- incorporation of tritiated thymidine (sample dpm/control dpm) (HT29 tumor cells; 25 μg/ml): 0.71
- incorporation of tritiated thymidine (sample dpm/control dpm) (HT29 tumor cells; 50 μg/ml): 0.58
- incorporation of tritiated thymidine (sample dpm/control dpm) (HT29 tumor cells; 100 μg/ml): 0.52
- pIC50 [3]: ≥ 4.52

Compound: C[C@H]1C(=O)O[C@H]2C[C@]3(C)O[C@@H]3[C@@H]3O[C@@H]3C3=C[C@@H](OC3=O)[C@@H]21 [Dihydromikanolide, dihydromikanolide, reference compound]
- % inhibition of incorporation [2]: 77 ± 11%
- incorporation of tritiated thymidine (sample dpm/control dpm) (HT29 tumor cells; 25 μg/ml): 0.98
- incorporation of tritiated thymidine (sample dpm/control dpm) (HT29 tumor cells; 50 μg/ml): 0.22
- incorporation of tritiated thymidine (sample dpm/control dpm) (HT29 tumor cells; 100 μg/ml): 0.14

Reference: patent publication US6887869B2, “Mikanolide derivatives, their preparation and therapeutic uses” (Societe de Conseils de Recherches et d'Applications …, priority 2001, dated 2005)
